Measured values taken from patent US8367094B2, “Antimicrobial material and method for making the same” (priority 2008, dated 2013).

Assays:
P. aeruginosa = conditions: known in the art; cited from earlier work
S. aureus = experiment: in vitro agar zone of inhibition (ZOI) test; format: cell-based; conditions: 24 hours
Method: In an experimental procedure, using a commercially-available, medical grade polyurethane (PU) solution (available, for example from ChronoFlex AR, CardioTech International, Inc. of Woburn, Mass.), silver salt(s) is/are manually incorporated into the solution. The silver-loaded ChronoFlex solution is spread onto glass, and dried in a circulating oven at 80 C for 1.5 hours. The loaded PU film was allowed to equilibrate at RT for at least two days, and subsequently demolded. The film was manually cut into circles by means of a cork borer, and placed into serially-labeled Petri dishes. The microbiology technician was blinded regarding which silver salts were incorporated into the film. Two types of silver salts were tested as described generally above: (1) soluble salts for quick release, and (2) an insoluble salt for longevity.
If the test samples show a “zone of inhibition” (“ZOI”) the specimen thus display the capacity to kill the microorganisms tested. The ZOI is measured in mm; the greater the ZOI distance, the more powerful is the microbiocidal effect. Note that, prior to application, the test films were sterilized using short-wave UV at a distance of 2 inches for 10 seconds.
Using a 10 mm sample disc, the microbial growth inhibition was measured from the edge of each sample disc, producing antimicrobial results in accordance with the following Table:

Compound | effectiveness against Gram-negative rods (such as pseudomonas aeruginosa) (P. aeruginosa) | microbiocidal activity against S. aureus, in words (S. aureus)
[H]/N=C(\N/C(=N/[H])NCCCCCCNC(=N)NC(=N)Nc1ccc(Cl)cc1)Nc1ccc(Cl)cc1 [chlorhexidine] | somewhat ineffective | –
O=C([O-])c1ccccc1.[Ag+] [silver benzoate] | – | totally ineffective
CC(O)C(=O)[O-].[Ag+] (stereo not shown) [silver lactate] | – | totally ineffective
O=C([O-])C(F)(F)F.[Ag+] [silver trifluoroacetate] | – | effective against Gram-positives, but for very short periods of time
